According to patent US8298991B2, “Method for controlling undesired mimosoideae vegetation” (E I du Pont de Nemours and Company, priority 2008, dated 2012):

Legend:
[1] = tested on: huisache (Acacia farnesiana); experiment: Test A: field study, control of a natural stand of huisache; type: in vivo; settings: for % Defoliation 62 DAA: 62 days after application, vs control plot, foliar spray with 1% methylated seed oil, g ai/ha: Compound 1 250, fosamine-ammonium 6688, imazapyr (a.e.) 280, metsulfuron-methyl 42, alone or combined; for % Control 229 DAA: 229 days after application; for % Control 229 DAA / % Control 543 DAA / % Control 656 DAA / % Control 745 DAA: % of trees with no green foliage or regrowth, g ai/ha: Compound 1 250, fosamine-ammonium 6688, imazapyr 280, metsulfuron-methyl 42; for % Control 543 DAA: 543 days after application; for % Control 656 DAA: 656 days after application; for % Control 745 DAA: 745 days after application
Procedure: A field study was conducted to evaluate the efficacy of 250 g/ha of Compound 1, 6.7 kg/ha of fosamine-ammonium (i.e. ammonium salt of fosamine), 280 g/ha of imazapyr (provided in the form of the isopropylammonium salt of imazapyr) and 42 g/ha of metsulfuron-methyl, separately and in combination, for controlling a natural stand of huisache (Acacia farnesiana) on a ranch in southeastern Texas. Compound 1 was in the form of a wettable granule formulation containing 80% by weight of Compound 1. Fosamine-ammonium was provided by KRENITE® S, which is a water-soluble liquid formulation containing 41.5% of fosamine-ammonium. Imazapyr was provided by ARSENAL®, which is a water-soluble liquid formulation containing 28.7% of imazapyr-isopropylammonium (equivalent to 22.6% of imazapyr, i.e. imazapyr acid equivalent). Metsulfuron-methyl was provided by ESCORT® XP, which is a wettable granule formulation containing 60% of metsulfuron-methyl.
The trial design was a large block, single replicate field study using rectangular test plots measuring 12.8 m by 22.9 m. The huisache trees in the test plots averaged 2.4 m tall and were estimated to be approximately 20 years old. The formulated herbicides were diluted with water and 1% by volume of methylated seed oil was added to provide about 27.4 L of spray mixture. The treatments were applied in early autumn using a high-volume handgun sprayer projecting the spray mixture upward and across a plot in a slow back and forth motion while traversing the plot lengthwise. This produced a rainfall-like spray covering both the huisache trees and ground between trees in the plots. The volume of spray mixture used (corresponding to 935 L/ha) was sufficient to thoroughly wet the foliage of the huisache trees with relatively little drip or run off under the trees.
The effects of the herbicide treatments were visually evaluated. At 62 days after application (DAA), the percentage of defoliation in comparison to a control plot was observed. Then at 229, 543, 656 and 745 days after application % control was calculated based on the percentage of trees showing no green foliage or regrowth.

[2] = tested on: honey mesquite (Prosopis glandulosa); experiment: Test B: field study, control of natural stands of honey mesquite; type: in vivo; settings: for % Control Site 1 Observed: Site 1, 12 months after application, 94 L/ha; for % Control Site 1 Observed / % Control Site 2 Observed: % dead trees, g ai/ha: Compound 1 125, triclopyr (a.e., as butotyl ester) 280; for % Control Site 2 Observed: Site 2, 10 months after application, 140 L/ha
Procedure: A field study was conducted to evaluate the efficacy of 125 g/ha of Compound 1 and 280 g/ha of triclopyr (in the form of the butoxyethyl ester of triclopyr, i.e. triclopyr-butotyl), separately and in combination, for controlling natural stands of honey mesquite (Prosopis glandulosa) on ranches in western Texas. Compound 1 was in the form of an 80% wettable granule formulation. Triclopyr was provided by GARLON® 4 or REMEDY®, which are emulsifiable concentrate formulations containing 44.3% or 61.6% of triclopyr-butotyl, respectively.
The trial design was a large block, single replicate test. Each test used rectangular test plots measuring 3 m by 9 m and incorporating at least 10 mesquite plants per plot. The formulated herbicides were diluted with water, and 1% by volume of methylated seed oil was added, to provide volumes of spray mixtures corresponding to a rate of 94 L/ha at Site 1 and 140 L/ha at Site 2. The treatments were applied using flat fan nozzles on an elevated spray boom moved across the plots by an all-terrain vehicle or small tractor. The elevated spray boom and relatively low spray volumes simulated aerial (e.g., helicopter or fixed wing aircraft) applications.
In each plot 10 mesquite trees were identified with a metal tag for evaluation. The effects of the herbicide treatments were evaluated 12 months after application at Site 1 and 10 months after application at Site 2. Visual evaluations were used to rate the herbicidal effect of the various treatments. A tree was considered alive if any foliage was present within the tree canopy area or if any new growth (i.e. sprouts) emerged from the base of the tree.
Expected results were calculated using the Colby Equation. Colby's equation (S. R. Colby, “Calculating Synergistic and Antagonistic Responses of Herbicide Combinations,” Weeds, 15(1), pp 20-22 (1967)) calculates the expected additive effect of herbicidal mixtures, and for two active ingredients is of the form: Pa+b=Pa+Pb−(PaPb/100) wherein • Pa+b is the percentage effect of the mixture expected from additive contribution of the individual components, • Pa is the observed percentage effect of the first active ingredient at the same use rate as in the mixture, and • Pb is the observed percentage effect of the second active ingredient at the same use rate as in the mixture.

| SMILES | % Defoliation 62 DAA [1] [%] | % Control 229 DAA [1] [%] | % Control 543 DAA [1] [%] | % Control 656 DAA [1] [%] | % Control 745 DAA [1] [%] | % Control Site 1 Observed [2] [%] | % Control Site 2 Observed [2] [%] | long-term control of honey mesquite (text summary over Sites 1 and 2) ([2]; both sites, Compound 1 125 g/ha, triclopyr 280 g/ha) [%] |
| --- | --- | --- | --- | --- | --- | --- | --- | --- |
| CC(C)C1(C)N=C(c2ncccc2C(=O)O)NC1=O (racemic) [Imazapyr, (±)-2-[4,5-dihydro-4-methyl-4-(1-methylethyl)-5-oxo-1H-imidazol-2-yl]-3-pyridinecarboxylic acid] | 70 | 9 | 0 | 0 | 0 | – | – | – |
| COC(=O)c1nc(C2CC2)nc(N)c1Cl [Compound 1, methyl 6-amino-5-chloro-2-cyclopropyl-4-pyrimidine-carboxylate] | 100 | 91 | – | – | 33 | 60 | 60 | 60 |
| CCOP(=O)(O)C(N)=O [Fosamine, ethyl hydrogen (aminocarbonyl)phosphonate] | 75 | 0 | 0 | 0 | 0 | – | – | – |
| COC(=O)c1ccccc1S(=O)(=O)NC(=O)Nc1nc(C)nc(OC)n1 [Metsulfuron-methyl, methyl 2-[[[[(4-methoxy-6-methyl-1,3,5-triazin-2-yl)amino]carbonyl]amino]sulfonyl]benzoate] | 85 | 11 | 0 | 0 | 0 | – | – | – |
| O=C(O)COc1nc(Cl)c(Cl)cc1Cl [Triclopyr, [(3,5,6-trichloro-2-pyridyl)oxy]acetic acid] | – | – | – | – | – | 0 | 30 | – |
